Series [1] addresses T1, Sodium-dependent dopamine transporter (Rattus norvegicus, UniProt P23977). The experiment in a line: Inhibition of rat DAT.
Series [2] deals with T1, Sodium-dependent dopamine transporter. Briefly: Inhibition of rat DAT-mediated uptake.
Series [3] deals with Transporter (Rattus norvegicus, UniProt Q63380). The experiment in a line: Inhibition of rat NET-mediated uptake.
Series [4] concerns the target Sodium-dependent serotonin transporter (Rattus norvegicus, UniProt P31652). The experiment in a line: Inhibition of rat SERT-mediated uptake.
Series [5] deals with Cytochrome P450 2C19 (Homo sapiens, UniProt P33261). Briefly: Inhibition of CYP2C19 in human microsome. The class given is ADME.
Series [6] deals with Cytochrome P450 3A4 (Homo sapiens, UniProt P08684). The experiment in a line: Inhibition of CYP3A4 in human microsome. The series is classed as ADME.
For series [7], the target named is Cytochrome P450 3A5 (Homo sapiens, UniProt P20815). Briefly: Inhibition of CYP3A5 in human microsome. The series is classed as ADME.
For series [8], the target named is Cytochrome P450 2D6 (Homo sapiens, UniProt P10635). Briefly: Inhibition of CYP2D6 in human microsome. The class given is ADME.
Series [9] has as its target Cytochrome P450 2C9 (Homo sapiens, UniProt P11712). Briefly: Inhibition of CYP2C9 in human microsome. The class given is ADME.
Series [10] addresses T2, Cytochrome P450 1A1 (Homo sapiens, UniProt P04798).
T2 sequence (P04798 whole entry): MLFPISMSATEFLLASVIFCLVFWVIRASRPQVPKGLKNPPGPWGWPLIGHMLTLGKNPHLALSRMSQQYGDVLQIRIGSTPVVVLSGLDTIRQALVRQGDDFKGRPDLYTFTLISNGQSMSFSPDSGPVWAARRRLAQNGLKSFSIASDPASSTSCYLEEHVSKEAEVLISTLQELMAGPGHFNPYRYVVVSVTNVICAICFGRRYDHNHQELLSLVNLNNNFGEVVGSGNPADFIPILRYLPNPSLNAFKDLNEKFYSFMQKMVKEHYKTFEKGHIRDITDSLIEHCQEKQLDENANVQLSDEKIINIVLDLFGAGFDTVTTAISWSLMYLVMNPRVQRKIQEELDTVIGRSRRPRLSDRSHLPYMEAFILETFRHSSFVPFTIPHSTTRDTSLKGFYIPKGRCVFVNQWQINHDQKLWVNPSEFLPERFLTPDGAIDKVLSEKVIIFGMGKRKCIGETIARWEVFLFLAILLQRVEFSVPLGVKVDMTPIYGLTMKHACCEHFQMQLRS
Briefly: (§1) Inhibition of CYP1A1 in human microsome at 100 uM. The class given is ADME, microsomes. The settings on record: microsomes, 100 µM.

Series [11] addresses T3, Cytochrome P450 1A2 (Homo sapiens, UniProt P05177).
T3 sequence (P05177 whole entry): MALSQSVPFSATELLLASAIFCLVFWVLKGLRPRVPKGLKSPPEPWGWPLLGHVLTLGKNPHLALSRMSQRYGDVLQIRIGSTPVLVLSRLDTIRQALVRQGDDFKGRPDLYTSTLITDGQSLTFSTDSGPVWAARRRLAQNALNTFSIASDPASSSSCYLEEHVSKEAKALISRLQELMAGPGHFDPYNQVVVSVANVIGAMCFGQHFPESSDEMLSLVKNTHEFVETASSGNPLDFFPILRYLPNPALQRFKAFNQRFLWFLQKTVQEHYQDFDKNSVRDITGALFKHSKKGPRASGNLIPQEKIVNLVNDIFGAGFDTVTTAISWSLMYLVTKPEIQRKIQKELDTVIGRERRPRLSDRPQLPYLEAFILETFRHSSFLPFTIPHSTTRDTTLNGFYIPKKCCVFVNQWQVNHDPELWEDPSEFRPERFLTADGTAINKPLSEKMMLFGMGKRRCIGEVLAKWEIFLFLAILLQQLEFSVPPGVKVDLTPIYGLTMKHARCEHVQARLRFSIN
The experiment in a line: (§2) Inhibition of CYP1A2 in human microsome at 100 uM. The series is classed as ADME, microsomes. The settings on record: microsomes, 100 µM.

Series [12] has as its system Rattus norvegicus. Briefly: Wake promoting activity in Sprague-Dawley rat assessed as increase of wake duration at 100 mg/kg, ip after 4 hrs (reference value: 79.2 +/- 7.2 mins). The class given is functional. To be noted: route intraperitoneal.
Series [13] deals with Transporter (Rattus norvegicus) (UniProt Q63380). The experiment in a line: Inhibition of rat NET at 10 uM.
In series [14] the target is Sodium-dependent serotonin transporter (Rattus norvegicus) (UniProt P31652). The experiment in a line: Inhibition of rat SERT at 10 uM.
In series [15] the target is T4, CYP1A1 (Homo sapiens, UniProt P04798).
T4 sequence (P04798 whole entry): T2 sequence (P04798 whole entry)
Described as §1. To be noted: human microsomes. The class given is ADME, microsomes.

For series [16], the target named is T5, CYP1A2 (Homo sapiens, UniProt P05177).
T5 sequence (P05177 whole entry): T3 sequence (P05177 whole entry)
Described as §2. The settings on record: human microsomes. The class given is ADME, microsomes.

Structures are written as SMILES.

T1 sequence (P23977 whole entry): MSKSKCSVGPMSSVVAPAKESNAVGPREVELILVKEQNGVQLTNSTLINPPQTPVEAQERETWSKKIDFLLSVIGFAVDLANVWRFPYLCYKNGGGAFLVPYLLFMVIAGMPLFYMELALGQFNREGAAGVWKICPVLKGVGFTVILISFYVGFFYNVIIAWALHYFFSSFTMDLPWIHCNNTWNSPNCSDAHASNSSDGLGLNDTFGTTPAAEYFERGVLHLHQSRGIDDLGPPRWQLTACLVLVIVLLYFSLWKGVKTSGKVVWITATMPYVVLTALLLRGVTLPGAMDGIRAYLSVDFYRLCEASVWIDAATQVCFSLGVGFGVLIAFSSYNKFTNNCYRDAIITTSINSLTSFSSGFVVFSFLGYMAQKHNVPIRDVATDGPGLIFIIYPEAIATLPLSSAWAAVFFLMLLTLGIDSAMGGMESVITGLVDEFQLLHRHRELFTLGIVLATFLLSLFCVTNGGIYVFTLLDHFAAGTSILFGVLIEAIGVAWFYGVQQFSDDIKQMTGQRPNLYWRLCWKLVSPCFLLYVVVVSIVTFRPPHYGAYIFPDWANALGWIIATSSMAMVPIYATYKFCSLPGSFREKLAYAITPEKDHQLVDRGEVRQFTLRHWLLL
Chain of Cytochrome P450 2C19 (P33261 whole entry): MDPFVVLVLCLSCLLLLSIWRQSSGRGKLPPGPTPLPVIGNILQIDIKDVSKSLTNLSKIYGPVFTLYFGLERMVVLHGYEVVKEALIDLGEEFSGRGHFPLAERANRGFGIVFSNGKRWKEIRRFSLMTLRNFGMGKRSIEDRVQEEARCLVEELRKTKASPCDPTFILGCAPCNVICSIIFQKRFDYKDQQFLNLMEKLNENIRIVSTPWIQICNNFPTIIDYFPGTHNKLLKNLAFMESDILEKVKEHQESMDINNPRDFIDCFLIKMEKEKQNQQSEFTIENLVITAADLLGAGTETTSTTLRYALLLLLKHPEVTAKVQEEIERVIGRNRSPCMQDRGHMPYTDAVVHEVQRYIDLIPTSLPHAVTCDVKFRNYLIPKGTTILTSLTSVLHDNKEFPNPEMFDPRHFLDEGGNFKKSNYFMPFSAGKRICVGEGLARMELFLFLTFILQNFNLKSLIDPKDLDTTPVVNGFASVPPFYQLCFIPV
Chain of Cytochrome P450 3A4 (P08684 whole entry): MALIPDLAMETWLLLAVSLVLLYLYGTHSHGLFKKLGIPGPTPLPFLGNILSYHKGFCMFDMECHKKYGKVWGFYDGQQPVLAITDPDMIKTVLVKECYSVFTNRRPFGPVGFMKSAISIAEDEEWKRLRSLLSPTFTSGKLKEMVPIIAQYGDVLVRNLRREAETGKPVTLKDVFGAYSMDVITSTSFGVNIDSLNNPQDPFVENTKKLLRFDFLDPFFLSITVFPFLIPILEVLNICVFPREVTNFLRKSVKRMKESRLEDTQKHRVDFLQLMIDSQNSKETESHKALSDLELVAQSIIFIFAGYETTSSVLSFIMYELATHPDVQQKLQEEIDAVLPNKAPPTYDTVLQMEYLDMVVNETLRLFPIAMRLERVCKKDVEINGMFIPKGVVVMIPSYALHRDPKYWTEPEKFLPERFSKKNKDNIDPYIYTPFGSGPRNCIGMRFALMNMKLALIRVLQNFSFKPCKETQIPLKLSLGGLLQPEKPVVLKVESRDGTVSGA
Chain of Transporter (Q63380 whole entry): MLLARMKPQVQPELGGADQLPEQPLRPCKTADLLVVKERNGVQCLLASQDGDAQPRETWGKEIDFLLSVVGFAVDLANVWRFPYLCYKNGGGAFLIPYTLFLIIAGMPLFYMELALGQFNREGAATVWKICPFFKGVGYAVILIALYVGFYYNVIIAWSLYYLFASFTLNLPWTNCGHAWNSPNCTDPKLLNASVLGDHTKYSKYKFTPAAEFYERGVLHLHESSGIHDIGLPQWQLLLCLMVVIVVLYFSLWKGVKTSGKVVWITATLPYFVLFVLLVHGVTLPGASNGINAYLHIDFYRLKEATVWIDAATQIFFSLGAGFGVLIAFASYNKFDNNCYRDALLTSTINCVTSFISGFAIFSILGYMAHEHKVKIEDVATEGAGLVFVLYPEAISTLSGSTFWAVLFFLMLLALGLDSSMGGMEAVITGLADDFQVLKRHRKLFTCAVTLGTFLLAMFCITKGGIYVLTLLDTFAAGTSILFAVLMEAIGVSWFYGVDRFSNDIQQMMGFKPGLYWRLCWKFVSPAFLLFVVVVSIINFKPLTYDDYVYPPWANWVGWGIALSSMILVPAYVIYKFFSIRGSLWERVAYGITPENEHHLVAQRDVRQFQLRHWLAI
Chain of Transporter (Rattus norvegicus) (Q63380 as listed by the source): as the sequence (Q63380 whole entry) above
Chain of Cytochrome P450 3A5 (P20815 whole entry): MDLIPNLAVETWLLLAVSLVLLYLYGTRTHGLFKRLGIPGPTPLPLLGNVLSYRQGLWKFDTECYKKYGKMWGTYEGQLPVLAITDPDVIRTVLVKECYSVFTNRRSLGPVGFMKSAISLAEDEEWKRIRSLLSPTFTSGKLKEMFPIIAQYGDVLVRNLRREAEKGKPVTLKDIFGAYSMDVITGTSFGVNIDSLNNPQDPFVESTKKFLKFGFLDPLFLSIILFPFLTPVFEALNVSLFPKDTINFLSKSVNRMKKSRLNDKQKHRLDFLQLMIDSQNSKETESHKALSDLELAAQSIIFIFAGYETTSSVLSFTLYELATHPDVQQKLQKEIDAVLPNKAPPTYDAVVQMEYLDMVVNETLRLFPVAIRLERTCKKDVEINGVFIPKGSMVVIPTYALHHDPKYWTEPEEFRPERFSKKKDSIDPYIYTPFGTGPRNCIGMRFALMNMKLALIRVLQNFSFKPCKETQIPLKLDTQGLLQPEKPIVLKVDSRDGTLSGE
Chain of Cytochrome P450 2C9 (P11712 whole entry): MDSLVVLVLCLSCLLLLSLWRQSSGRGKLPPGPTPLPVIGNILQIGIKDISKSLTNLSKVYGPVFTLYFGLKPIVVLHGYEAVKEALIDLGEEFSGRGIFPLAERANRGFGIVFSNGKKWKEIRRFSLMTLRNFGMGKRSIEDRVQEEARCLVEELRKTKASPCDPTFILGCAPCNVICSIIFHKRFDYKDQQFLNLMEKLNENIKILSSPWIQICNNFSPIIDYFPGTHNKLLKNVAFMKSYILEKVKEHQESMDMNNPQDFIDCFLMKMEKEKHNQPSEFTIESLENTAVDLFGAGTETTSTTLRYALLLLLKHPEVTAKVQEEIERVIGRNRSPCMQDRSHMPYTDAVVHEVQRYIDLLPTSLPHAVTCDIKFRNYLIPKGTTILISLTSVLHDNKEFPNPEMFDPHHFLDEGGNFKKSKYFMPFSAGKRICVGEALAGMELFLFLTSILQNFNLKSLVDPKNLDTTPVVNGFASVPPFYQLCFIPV
Chain of Sodium-dependent serotonin transporter (P31652 whole entry): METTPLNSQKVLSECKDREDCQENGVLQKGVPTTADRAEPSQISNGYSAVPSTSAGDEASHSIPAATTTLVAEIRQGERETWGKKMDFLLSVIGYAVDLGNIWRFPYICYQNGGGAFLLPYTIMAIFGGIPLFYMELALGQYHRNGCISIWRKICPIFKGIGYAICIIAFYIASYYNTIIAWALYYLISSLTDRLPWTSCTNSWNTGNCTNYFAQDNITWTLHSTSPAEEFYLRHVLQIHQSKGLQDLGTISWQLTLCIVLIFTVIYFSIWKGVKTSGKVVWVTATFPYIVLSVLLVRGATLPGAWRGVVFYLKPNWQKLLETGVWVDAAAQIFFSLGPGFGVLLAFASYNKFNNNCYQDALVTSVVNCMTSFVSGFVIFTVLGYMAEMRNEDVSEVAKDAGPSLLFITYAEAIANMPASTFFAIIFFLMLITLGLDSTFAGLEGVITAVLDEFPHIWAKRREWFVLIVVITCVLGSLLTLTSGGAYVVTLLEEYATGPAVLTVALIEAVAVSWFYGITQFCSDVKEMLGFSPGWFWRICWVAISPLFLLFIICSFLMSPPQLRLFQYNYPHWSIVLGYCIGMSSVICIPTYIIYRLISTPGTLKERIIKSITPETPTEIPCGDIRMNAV
Chain of Sodium-dependent serotonin transporter (Rattus norvegicus) (P31652 whole entry): as above
Chain of Cytochrome P450 2D6 (P10635 whole entry): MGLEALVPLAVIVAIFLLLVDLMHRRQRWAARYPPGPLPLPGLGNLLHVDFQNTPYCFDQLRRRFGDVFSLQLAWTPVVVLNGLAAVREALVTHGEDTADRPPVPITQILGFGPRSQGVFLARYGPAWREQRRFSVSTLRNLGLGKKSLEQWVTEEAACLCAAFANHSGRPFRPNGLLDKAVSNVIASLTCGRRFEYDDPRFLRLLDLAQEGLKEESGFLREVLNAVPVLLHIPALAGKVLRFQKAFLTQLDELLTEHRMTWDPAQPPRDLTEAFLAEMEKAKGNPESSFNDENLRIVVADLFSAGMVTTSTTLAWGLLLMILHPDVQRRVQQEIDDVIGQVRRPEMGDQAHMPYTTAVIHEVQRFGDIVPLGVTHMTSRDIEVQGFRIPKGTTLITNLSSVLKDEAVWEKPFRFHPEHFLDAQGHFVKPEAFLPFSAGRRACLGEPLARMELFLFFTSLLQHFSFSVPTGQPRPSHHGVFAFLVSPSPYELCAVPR

Broadly, the IC50 is the concentration that inhibits the measured activity by half. For `NC(=O)C[S+]([O-])Cc1ccccc1-c1ccc(Cl)cc1` (single isomer, unassigned; (+)) [listing 1 of 2 here], the IC50 in series [1] was 4.2 µM; in [2] it was 3.8 µM; in series [3] it was 32 µM; in series [4] it was > 300 µM; in [5] it was 112 µM; in series [6] it was 159 µM. In addition, the IC50 in series [7] came out at 159 µM; in series [8], 151 µM; in series [9], 129 µM. The “inhibition (INH)” value in series [10] and in series [11] was 20% each time. The Time in [12] was determined as 227.1 min.
As a reminder, the inhibition is the percentage by which the read-out fell short of the control. Higher therefore signals a response far below the control. As for `NC(=O)C[S+]([O-])Cc1ccccc1-c1ccc(Cl)cc1` (single isomer, unassigned; (+)) [listing 2 of 2 here], the inhibition in series [13] was determined as 12%; in [14] it was 4%.
With `NC(=O)C[S+]([O-])Cc1ccccc1-c1ccc(Cl)cc1` (single isomer, unassigned; (-)) [listing 1 of 2 here], the inhibition in series [13] is 16%; in [14], 3%.
As for `NC(=O)C[S+]([O-])Cc1ccccc1-c1ccc(Cl)cc1` (single isomer, unassigned; (-)) [listing 2 of 2 here], the half-maximal inhibitory concentration (IC50) in [1] was 0.4 µM; in series [3], 11 µM; in series [4], > 300 µM; in [5], 174 µM; in series [6], 139 µM; in series [7] it was 139 µM. The half-maximal inhibitory concentration (IC50) in [8] was determined as 177 µM; in [9] it was 233 µM. Besides, the inhibition at 100 µM in [15] and in [16] was 14% in each case. For the same compound, in [12], the Time is on record as 238.5 min.

These data come from ChEMBL document CHEMBL1955765, “Wake-promoting agents: search for next generation modafinil: part II” (Bioorg Med Chem Lett, 2012).
